Test results reported in article PMC10574767, “Extractives from Artemisia afra with Anti-Bacterial and Anti-Fungal Properties” (Plants, 2023).
In brackets after ≈: the same amount, converted by molar mass. Read-outs that look alike come from different tables or passages of the source.

Assays:
[1] = design: method as in PMID 22693528; settings: cited from earlier work
[2] = design: method as in PMID 23878606; settings: read-out: EC50 scavenging DPPH; cited from earlier work
[3] = system: Stenotrophomonas maltophila DMST 19079; design: method as in PMID 31119085; settings: cited from earlier work
in vitro = test: in vitro
Procedure: Cytotoxicity of compounds and extracts was tested against mammalian cells using the MTT assay. MCF-7 cancer cells were grown in a 5% CO2 incubator in Dulbecco’s Modified Eagle’s Medium (DMEM, Highveld Biological, Johannesburg, South Africa) supplemented with 10% fetal calf serum (Adcock-Ingram, Johannesburg, South Africa) and 1% penicillin-streptomycin (10,000 U/mL and 10 mg/mL streptomycin, Sigma Aldrich). In a 5% CO2 incubator, Vero cells were grown in a minimal essential medium (MEM, Highveld Biological, South Africa) supplemented with 5% fetal calf serum (Adcock-Ingram) and 0.1% gentamicin (Virbac). Cell suspensions were obtained from 70–80% confluent monolayer cultures and were plated in 96-well cell culture plates at a density of 1 × 10^4. Plates were incubated in a 5% CO2 incubator for 24 h at 37 °C. The cells were exposed to the extracts or compounds dissolved in the media at different concentrations for 48 h. Positive and negative controls were doxorubicin (Pfizer, New York, NYC, USA) and acetone or DMSO, respectively. After that, the wells were rinsed with phosphate-buffered saline (PBS, Sigma) and 200 µL of fresh medium was poured into the wells. Thirty microlitres (5 mg/mL) of MTT (Sigma) dissolved in PBS was added to each well, and the plates were incubated at 37 °C for 4 h. The medium from the wells was removed, rinsed, and 50 µL of 100% DMSO was added to the wells. At a wavelength of 570 nm, absorbance was measured using a microplate reader (BioTek Synergy, Beijing, China). Each sample concentration was tested in quadruplicate in two repeats (n = 8), and the concentration causing 50% inhibition of cell viability (LC50) was calculated. Selectivity index (SI) values for the extracts/compounds were obtained by dividing cytotoxicity LC50 values of normal (Vero) cells by those of the cancer cells.

Candida albicans = system: Candida albicans; design: method as in PMID 22693528; settings: cited from earlier work
[4] = system: Staphylococcus aureus ATCC 43300; design: method as in PMID 31119085; settings: cited from earlier work
[5] = design: method as in PMID 23878606; settings: read-out: EC50 scavenging ABTS; cited from earlier work
[6] = system: Pseudomonas aeruginosa ATCC 27853; test: Serial dilution microplate MIC; type: cell-based; settings: Table 2; for MIC: Pseudomonas aeruginosa, read-out: Minimum inhibitory concentration (MIC) P. aeruginosa; for Selectivity index P. aeruginosa: in brackets, Vero LC50 vs MIC
Procedure: (§1) The MIC value of the plant extracts and isolated compounds against one fungal and five bacterial strains (Salmonella Typhimurium ATCC 39183, Escherichia coli ATCC 25922, Pseudomonas aeruginosa ATCC 27853, Staphylococcus aureus ATCC 29213, Enterococcus faecalis ATCC 29212, and fungi culture, Candida albicans ATCC 10231) was assessed in triplicate using the serial dilution microplate method; acetone and DMSO were used as solvents. Bacterial cultures were grown in Mueller Hinton broth (Sigma Aldrich, St. Louis, MO, USA) overnight and adjusted to McFarland standard 1 (1 × 10^8 CFU/mL). Then, 100 µL of samples were transferred into the first well of a sterile 96-well microtiter plate, which contained 100 µL of water and a 1:1 serial dilution with sterilized distilled water was carried out. In each well, 100 µL of appropriately adjusted fungal or bacterial cultures were added, and the bacteria were subjected to final concentrations of 250–3.9 μg/mL for pure compounds and 2.5–0.02 mg/mL for crude extracts. Amphotericin-B and Gentamicin (Virbac, Carros, France) served as positive controls for fungi and bacteria, respectively. For sterility, water served as control, while acetone served as a negative control. The microplates were then incubated for 24 h at 37 °C. Following incubation, 40 µL of 0.2 mg/mL p-iodonitrotetrazolium violet (INT, Sigma Aldrich) dissolved in water (hot) was added to the wells before being incubated at 37 °C for another 2 h. In the case of fungi, the INT was added before incubation. The MIC was measured visually as the lowest concentration of the compounds/extracts that inhibited proliferation.

[7] = system: Staphylococcus aureus ATCC 29213; test: Serial dilution microplate MIC; type: cell-based; settings: Table 2; for MIC: Staphylococcus aureus, read-out: Minimum inhibitory concentration (MIC) S. aureus; for Selectivity index S. aureus: in brackets, Vero LC50 vs MIC
Procedure: as §1

[8] = system: Enterococcus faecalis ATCC 29212; test: Serial dilution microplate MIC; type: cell-based; settings: Table 2; for MIC: Enterococcus faecalis, read-out: Minimum inhibitory concentration (MIC) E. faecalis; for Selectivity index E. faecalis: in brackets, Vero LC50 vs MIC
Procedure: as §1

[9] = system: Escherichia coli ATCC 25922; test: Serial dilution microplate MIC; type: cell-based; settings: Table 2; for MIC: Escherichia coli, ATCC25922, isolated compounds, read-out: Minimum inhibitory concentration (MIC) E. coli; for Selectivity index E. coli: in brackets, Vero LC50 vs MIC
Procedure: as §1

[10] = system: Salmonella Typhimurium ATCC 39183; test: Serial dilution microplate MIC; type: cell-based; settings: for MIC: Salmonella enterica; for Selectivity index S. Typhimurium: in brackets, Vero LC50 vs MIC
Procedure: as §1

[11] = system: Candida albicans ATCC 10231; test: Serial dilution microplate MIC (fungi); type: cell-based; settings: Table 2; for MIC: Candida albicans, read-out: Minimum inhibitory concentration (MIC) C. albicans; for Selectivity index C. albicans: in brackets, Vero LC50 vs MIC
Procedure: as §1

[12] = system: Enterococcus faecium UCLA 192; design: method as in PMID 31119085; settings: cited from earlier work
Staphylococcus aureus = system: Staphylococcus aureus; design: method as in PMID 19007012; settings: filter paper slice method; cited from earlier work
[13] = system: one fungal and five bacterial strains; test: Serial dilution microplate MIC, whole panel; type: cell-based; settings: isolated compounds, highest concentration 250 µg/mL
Procedure: as §1

IL-6 production = system: IL-6 production; design: method as in PMID 25573777; settings: TNF-α stimulated MG-63 cells; cited from earlier work
HeLa cancer cells = system: HeLa cancer cells; design: method as in doi:10.1016/j.sajb.2015.08.016; settings: dose-dependent cytotoxicity; cited from earlier work
E. faecalis = system: E. faecalis; design: method as in doi:10.1590/0102-695X20142413348; settings: cited from earlier work
Huh7 cells = system: Huh7 cells; design: method as in ref 66 = [66]; 66. NCCLS 2007 Available online: http://www.nccls.org (accessed on 15 March 2022); settings: cited from earlier work
[14] = system: normal human primary fibroblasts; design: method as in ref 66 = [66]; 66. NCCLS 2007 Available online: http://www.nccls.org (accessed on 15 March 2022); settings: cited from earlier work
P. aeruginosa = system: P. aeruginosa; design: method as in doi:10.1590/0102-695X20142413348; settings: cited from earlier work
[15] = system: S. aureus, MRSA, Proteus mirabilis, S. typhi, K. pneumoniae, E. coli, Bacillus subtilis, C. albicans and C. tropicalis; settings: 200µg/mL; cited from earlier work
HepG2 cells = system: HepG2 cells; design: method as in ref 66 = [66]; 66. NCCLS 2007 Available online: http://www.nccls.org (accessed on 15 March 2022); settings: cited from earlier work
Salmonella sp. = system: Salmonella sp.; design: method as in PMID 24575401; settings: cited from earlier work
S. aureus = system: S. aureus; design: method as in PMID 24575401; settings: cited from earlier work
B. subtilis = system: B. subtilis; design: method as in PMID 24575401; settings: cited from earlier work
[16] = isolated compounds, Table 2, read-out: Minimum inhibitory concentration (MIC) S. Typhimurium

## COc1cc2ccc(=O)oc2cc1O [Scopoletin, scopoletin]
[1]
  IC50 DPPH radical: 1.24 µg/mL (≈ 6.45 µM)
[2]
  EC50: 647.89 ± 0.07 µM
[3]
  MIC Stenotrophomonas maltophila DMST 19079: 256 µg/mL (≈ 1330 µM)
In vitro
  CC50 at 48 h: > 200 µg/mL
Candida albicans
  Activity against Candida albicans: ineffective
[4]
  MIC Staphylococcus aureus ATCC 43300: 128 µg/mL (≈ 666 µM)
[5]
  EC50: 191.51 ± 0.01 µM
[6]; ATCC27853, 24 h, isolated compounds
  MIC: > 250 µg/mL
[6]
  Selectivity index P. aeruginosa: < 0.8
[7]; ATCC29213, 24 h, isolated compounds
  MIC: 250 µg/mL (≈ 1300 µM)
[7]; ATCC29213, isolated compounds
  MIC: 250 µg/mL (≈ 1300 µM)
[7]
  Selectivity index S. aureus: > 0.8
[8]; ATCC29212, 24 h, isolated compounds
  MIC: 250 µg/mL (≈ 1300 µM)
[9]
  MIC: 62.5 µg/mL (≈ 325 µM)
  Selectivity index E. coli: > 3.2
[9]; listed as scopoletin
  Selectivity index E. coli: 3
[10]; read-out: Minimum inhibitory concentration (MIC) S. Typhimurium, isolated compounds, Table 2
  MIC: 125 µg/mL (≈ 650 µM)
[10]; Table 2
  Selectivity index S. Typhimurium: > 1.6
[11]; ATCC10231, 24 h, isolated compounds
  MIC: 250 µg/mL (≈ 1300 µM)
[11]
  Selectivity index C. albicans: > 0.8
[12]
  MIC Enterococcus faecium UCLA 192: 128 µg/mL (≈ 666 µM)

## COc1cc2ccc(=O)oc2c(OC)c1O[C@H]1O[C@@H](CO)[C@H](O)[C@@H](O)[C@@H]1O [Isofraxidin-7-O-β-D-glucopyranoside, isofraxidin-7-O-β-D-glucopyranoside]
Staphylococcus aureus
  Anti-bacterial effect against Staphylococcus aureus: no activity
[13]; all tested strains, read-out: MIC against all tested microorganisms
  MIC: ≥ 250 µg/mL
[13]
  MIC against all tested microorganisms: no efficacy
In vitro; monkey, LC50
  CC50 at 48 h: > 200 µg/mL
[6]; ATCC27853, isolated compounds
  MIC: > 250 µg/mL
[6]
  Selectivity index P. aeruginosa: < 0.8
[7]; ATCC29213, isolated compounds
  MIC: 250 µg/mL (≈ 650 µM)
[7]
  Selectivity index S. aureus: > 0.8
[8]; ATCC29212, isolated compounds
  MIC: > 250 µg/mL
[8]
  Selectivity index E. faecalis: < 0.8
[9]
  MIC: 250 µg/mL (≈ 650 µM)
  Selectivity index E. coli: > 0.8
[10]; [16]
  MIC: 250 µg/mL (≈ 650 µM)
[10]; Table 2
  Selectivity index S. Typhimurium: > 0.8
[11]; ATCC10231, isolated compounds
  MIC: 250 µg/mL (≈ 650 µM)
[11]
  Selectivity index C. albicans: > 0.8
IL-6 production
  Inhibitory activity against IL-6 production: 14%

## C=C1C(=O)O[C@@H]2C[C@@]3(C)CCCC(=C)[C@@H]3C[C@H]12 [Isoalantolactone]
HeLa cancer cells
  IC50: 8.15 ± 1.16 µM

## CC[C@@H](CC[C@@H](C)[C@H]1CC[C@H]2[C@@H]3CC=C4C[C@@H](O[C@H]5O[C@@H](CO)[C@H](O)[C@@H](O)[C@@H]5O)CC[C@]4(C)[C@H]3CC[C@]12C)C(C)C [Sitosterol-3-O-β-D-glucopyranoside, sitosterol-3-O-β-D-glucopyranoside]
E. faecalis
  MIC E. faecalis: 15 µg/mL (≈ 26 µM)
In vitro; monkey, LC50
  CC50 at 48 h: > 200 µg/mL
Huh7 cells
  IC50 proliferation of Huh7 cells: 5.25 ± 0.14 µg/mL
[14]
  Cytotoxic effects on normal human primary fibroblasts: not against normal human primary fibroblasts
P. aeruginosa
  MIC P. aeruginosa: 10 µg/mL (≈ 17.3 µM)
[6]; ATCC27853, isolated compounds
  MIC: > 250 µg/mL
[6]
  Selectivity index P. aeruginosa: < 0.8
[7]; ATCC29213, isolated compounds
  MIC: > 250 µg/mL
[7]
  Selectivity index S. aureus: < 0.8
[8]; ATCC29212, isolated compounds
  MIC: 31.2 µg/mL (≈ 54.2 µM)
[8]
  Selectivity index E. faecalis: > 6.4
[8]; listed as sitosterol-3-O-β-D-glucopyranoside
  Selectivity index E. faecalis: more than 6
[9]
  MIC: > 250 µg/mL
  Selectivity index E. coli: < 0.8
[10]; [16]
  MIC: > 250 µg/mL
[10]; Table 2
  Selectivity index S. Typhimurium: < 0.8
[11]; ATCC10231, isolated compounds
  MIC: 250 µg/mL (≈ 433 µM)
[11]
  Selectivity index C. albicans: > 0.8
[15]
  Anti-bacterial and anti-fungal activity: wide spectrum of anti-bacterial and anti-fungal activity
HepG2 cells
  IC50 proliferation of HepG2 cells: 4.64 ± 0.48 µg/mL

## C[C@@H]1CC[C@H]2[C@@H](C)C(=O)O[C@@H]3O[C@@]4(C)CC[C@@H]1[C@]32OO4 [Artemisinin]
Salmonella sp.
  MIC Salmonella sp.: 0.09 mg/mL (≈ 319 µM)
S. aureus
  MIC S. aureus: 0.09 mg/mL (≈ 319 µM)
B. subtilis
  MIC B. subtilis: 0.09 mg/mL (≈ 319 µM)
